Drawing on article PMC6934184, “Selective DNA-PKcs inhibition extends the therapeutic index of localized radiotherapy and chemotherapy” (The Journal of Clinical Investigation, 2019), this text covers inhibition for one molecule.

SMILES strings stand for the structures.

The target of the experiment is T1, NEK7 (Homo sapiens, UniProt Q8TDX7).
T1 construct: purchased Thermo Fisher Scientific (Life Technologies) SelectScreen
The experiment is described as follows: SelectScreen Z'LYTE. In kind it is biochemical. A digest of the protocol:
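Percent values come from Thermo SelectScreen profiling of NU5455, combining activity and binding assays. CSF1R was run in Z'LYTE format at Km app ATP, and CAMK1 in Adapta format with ATP listed at 10.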

T1 sequence (Q8TDX7 whole entry): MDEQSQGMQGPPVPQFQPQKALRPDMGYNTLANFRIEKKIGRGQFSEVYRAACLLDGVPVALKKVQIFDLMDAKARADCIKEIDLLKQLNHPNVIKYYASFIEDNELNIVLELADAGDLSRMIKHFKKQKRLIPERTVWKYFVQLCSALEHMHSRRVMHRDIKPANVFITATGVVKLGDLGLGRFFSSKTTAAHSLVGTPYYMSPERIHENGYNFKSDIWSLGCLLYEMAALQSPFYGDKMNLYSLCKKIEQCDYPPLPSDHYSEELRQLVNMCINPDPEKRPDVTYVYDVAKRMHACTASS

Turning to `CN(C(=O)CN1CCOCC1)c1ccc2sc3c(-c4cccc5c(=O)cc(N6CC7CCC(C6)O7)oc45)cccc3c2c1` [NU5455], the inhibition at 1 µM was -2.1%.
